{"source": "patent US8648200B2", "about": "“Imidazole derivatives useful for the treatment of arthritis” (Eli Lilly and Company, priority 2011, dated 2014)", "key": {"[1]": {"system": "PGF2α and TXB2 production", "experiment": "Human Whole Blood Assay (LPS, PGF2α and TXB2)", "type": "cell-based", "conditions": "LPS 100 μg/mL, 20-24 hours", "protocol": "Blood is collected from normal volunteer donors into sodium heparin vacutainer tubes. Donors have not taken NSAIDs, aspirin, Celebrex, or glucocorticoids within two weeks of the donation. All tubes/donor are pooled into 250 mL Corning conical centrifuge tubes and 436.5 μL/well is distributed into deep well polypropylene plates. Compounds are diluted in DMSO to 100× final and 4.5 μL/well in duplicate or triplicate is added to give 7 point curves. The blood is pretreated at 37° C., 5% CO2, in a humidified atmosphere, loosely covered with a silicone cap mat, for 30 minutes after which 9 μL/well of a solution of 5 mg/mL of lipopolysaccharide (LPS) (Sigma 0111:B4) in 1 mg/mL bovine serum albumin (BSA)/PBS is added to give a final LPS concentration of 100 μg/mL. The plates are incubated for 20-24 hours, loosely covered, at 37° C., 5% CO2, in a humidified atmosphere, on an orbital shaker at approximately 100 rpm. The plates are tightly sealed with silicone cap mats and are chilled on ice for approximately 1 hour. Then the plates are centrifuged at 1800×g, 10 minutes, 4° C., in an Eppendorf 5810R centrifuge. […] One hundred microliters is quantitatively transferred to Costar cluster tubes blocks and 400 μL/well of the methanol stop reagent and internal standards, d-4PGE2, d-4PGF2α, and d-4TX2β are added. […] The products were analyzed by LC/MS/MS."}, "[2]": {"system": "synthesis of other prostanoids", "experiment": "Cell Based Assay for Measuring Eicosanoid Selectivity (A549, other prostanoids, PGI2)", "parameters": "species or system human", "conditions": "A549 cells, rhIL-1β; PGI2 by enzyme immunoassay", "protocol": "(§1) Human epithelial lung carcinoma cell line A549 is obtained from ATCC (CCL-185) and is maintained in Kaighn's F12 (“F12K”)+10% fetal bovine serum, (FBS) (plating medium), and 5% CO2. The cells are passaged at 1:3 twice a week.\n(§2) For this assay, cells are released from flasks by washing once with phosphate buffered saline (PBS), then once with Trypsin/EDTA. After 3-5 minutes at 37° C., the cells are suspended in 10 mL of plating medium, and centrifuged at 2,000 rpm at 25° C. for 5 minutes. The supernatant is aspirated, and the cell pellet is resuspended in 10 mL F12K. Cell number is determined by counting an aliquot of cells, which has been diluted in PBS and Trypan blue on a hemocytometer. Cells are plated at 40,000/well in 96 well Falcon plates 24 hours prior to treatment. […] The plates are incubated at room temperature for 30-45 minutes, and then read on a plate reader at A490 to determine viability. […]\n(§3) The conditioned medium is assayed for levels of PGE2 and PGI2 by specific enzyme immune-assays (ETAs) according to the manufacturer's protocols (Cayman) Briefly, conditioned medium (1 μL) is added to each well of a 96 well plate coated with a capture antibody and containing ETA buffer (49 μL) supplied by the manufacturer. […] After approximately 45 minutes at room temperature on an orbital shaker at 100 rpm, the plates are read at A412 on a plate reader. […]"}, "PGE2 formation": {"system": "PGE2 formation", "experiment": "Cell Based Assay for Measuring Eicosanoid Selectivity (A549, rhIL-1β induced PGE2)", "conditions": "Homo sapiens; A549 cells, rhIL-1β 0.1-0.2 ng/mL, approx. 18 hours; mean±standard deviation; n=4; read-out: IC50 inhibition of PGE2 formation", "protocol": "as §1, §2, §3"}, "Human mPGES-1": {"molecular_target": "T1, Human mPGES-1 (Homo sapiens, UniProt O14684)", "T1 construct": "host or cells: 293E cells (transient expression from pcDNA3.1); microsomes", "T1 sequence (O14684 1-152)": "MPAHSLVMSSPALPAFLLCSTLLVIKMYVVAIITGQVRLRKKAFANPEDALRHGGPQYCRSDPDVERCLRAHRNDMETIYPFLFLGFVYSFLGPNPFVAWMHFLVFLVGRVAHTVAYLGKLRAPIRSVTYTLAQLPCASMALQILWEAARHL", "experiment": "Human mPGES-1 Enzyme Inhibition Assay", "type": "biochemical", "conditions": "microsomes from 293E cells, 1.69 μM PGH2; mean±standard deviation; n=10/22", "method": "Human mPGES-1 (Invitrogen™ (Cat #97002RG, clone ID 6374722)) is subcloned into pcDNA3.1 and transiently expressed in 293E cells. […] Briefly, pellets are brought up in homogenization buffer (15 mM Tris-HCl, pH 8.0; 0.25 M sucrose; 0.1 mM EDTA; 1 mM glutathione) and sonicated 5×30 seconds on ice. Homogenate is centrifuged at 5000×g for 10 minutes at 4° C. The supernatant fraction is decanted; loaded into Beckman Quick-Seal® tubes; and centrifuged at 150,000×g for 90 minutes at 4° C. The supernatant fraction is discarded by decantation; and the pellets are resuspended in assay buffer (10 mM sodium phosphate (pH 7.0), 10% glycerol, and 2.5 mM glutathione. Complete Protease Inhibitor Cocktail (Roche)). Protein concentration is determined using the Pierce Coomassie Plus™ reagent.\nFor the enzyme assay, the microsomes are diluted into assay buffer and 7 μL/well is added to 384 well plates. Compound dilution plates (Nunc Cat #249944) are generated on a Multimek™, and 1 μL/well is added to the assay plates. Prostaglandin H2 (PGH2) is diluted into assay buffer immediately before use and 7 μL/well is added. Final concentrations are 4.4 μg/mL microsomes and 1.69 μM PGH2. After a 2.5 minute incubation at room temperature, 2.5 μL/well of 1 mg/mL of snCl2 in 0.5 N HCl is added to stop the reaction. […]"}, "[3]": {"system": "Dunkin Hartley guinea pigs", "experiment": "Monoiodoacetate (MIA) In Vivo Model, incapacitance testing", "parameters": "species or system guinea pig", "conditions": "for Mean % Reduction of Pain Compared to Vehicle / Mean Difference in Hind Paw Weight Bearing (Saline knee-MIA knee): four hours post-dose; for Mean Difference in Hind Paw Weight Bearing (Saline knee-MIA knee): 9 days after MIA, Mean ± SEM, n=6; for pain versus vehicle (statistical comparison): Example 1 both doses (10 and 50 mg/kg), diclofenac 30 mg/kg, p<0.05 by Dunnett's test", "protocol": "Male Dunkin Hartley guinea pigs weighing approximately 200-250 grams at the time of MIA injection are used to measure pain in the MIA model. The guinea pigs are group housed in a child's wading pool and maintained in a constant temperature and on a 12 hour light/12 hour dark cycle. On the day before study, the guinea pigs are moved to standard caging with 2 animals per cage. Animals have free access to food and water at all times except during data collection. All experiments are carried out according to protocols approved by the Eli Lilly Institutional Animal Care and Use Committees.\nIn the standard MIA model the right knees of each guinea pig are injected with MIA (0.3 mg) in saline ([…]) and the left knees with saline (50 μl). Pain is measured at 9 days after MIA injection using incapacitance testing. Incapacitance testing measures the difference in hind paw weight bearing between the MIA and saline injected knees, and each value represents the average of 3 separate measurements each measured over 1 second.\nFor this study, guinea pigs, are dosed with either vehicle (10% Cremophor® EL (CAS 61791-12-6) in saline) or Example 1 (10 or 50 mg/kg). A fourth group of guinea pigs are also dosed with the nonsteroidal anti-inflammatory drug diclofenac (vehicle saline, 30 mg/kg), which acts as a positive control for the study, as it has previously shown efficacy in the model. All dosing is subcutaneous at a dose volume of 5 ml/kg and group size is n=6. Dose group is randomly assigned to each animal and dosing is staggered by 10 minutes for each guinea pig. Four hours post-dose, pain is measured using incapacitance testing. Results are reported in Table 13 as the mean difference in weight bearing between saline and MIA injected knees and statistical comparisons are made between vehicle treated and compound treated animals to assess the effect of the compound of Example 1 on knee pain in the model.\nData is evaluated by one way analysis of variance; p<0.05 by Dunnett's test for comparison to vehicle and a Bonferroni adjustment is used for comparison between groups."}}, "data": [{"compound": "Cc1nc(NC(=O)c2cc(CNC(=O)C(C)C)cnc2C(F)F)[nH]c1-c1ccc(C(F)(F)F)cc1", "note": "[Example 1, 2-(Difluoromethyl)-5-{[(2-methylpropanoyl)amino]methyl}-N-{4-methyl-5-[4-(trifluoromethyl)phenyl]-1H-imidazol-2-yl}pyridine-3-carboxamide]", "values": [{"measurement": "effect on PGF2α production", "setting": "[1]", "value": "without inhibiting"}, {"measurement": "effect on TXB2 production", "setting": "[1]", "value": "without inhibiting"}, {"measurement": "effect on synthesis of other prostanoids", "setting": "[2]", "value": "without affecting the synthesis of other prostanoids"}, {"measurement": "IC50", "setting": "PGE2 formation", "value": "12.1 ± 6.1", "unit": "nM"}, {"measurement": "IC50", "setting": "Human mPGES-1", "value": "0.944 ± 0.59", "unit": "nM"}, {"measurement": "Mean % Reduction of Pain Compared to Vehicle", "setting": "[3]; 10 mg/kg subcutaneous", "value": 15, "unit": "%"}, {"measurement": "Mean Difference in Hind Paw Weight Bearing (Saline knee-MIA knee)", "setting": "[3]; 10 mg/kg subcutaneous", "value": "37.53 ± 0.87", "unit": "g"}, {"measurement": "Mean % Reduction of Pain Compared to Vehicle", "setting": "[3]; 50 mg/kg subcutaneous", "value": 36, "unit": "%"}, {"measurement": "Mean Difference in Hind Paw Weight Bearing (Saline knee-MIA knee)", "setting": "[3]; 50 mg/kg subcutaneous", "value": "28.44 ± 0.66", "unit": "g"}, {"measurement": "50 mg/kg group compared with the 10 mg/kg group and the diclofenac group", "setting": "[3]; 50 mg/kg, Bonferroni adjustment for comparison between groups", "value": "significantly different"}, {"measurement": "pain versus vehicle (statistical comparison)", "setting": "[3]", "value": "significantly reduce pain"}]}, {"compound": "O=C(O)Cc1ccccc1Nc1c(Cl)cccc1Cl", "note": "[Diclofenac, diclofenac, reference compound]", "values": [{"measurement": "Mean % Reduction of Pain Compared to Vehicle", "setting": "[3]; 30 mg/kg subcutaneous", "value": 22, "unit": "%"}, {"measurement": "Mean Difference in Hind Paw Weight Bearing (Saline knee-MIA knee)", "setting": "[3]; 30 mg/kg subcutaneous", "value": "34.65 ± 1.14", "unit": "g"}, {"measurement": "pain versus vehicle (statistical comparison)", "setting": "[3]", "value": "significantly reduce pain"}]}]}
